According to PMC11701132, “Tau is a receptor with low affinity for glucocorticoids and is required for glucocorticoid-induced bone loss” (Cell Research, 2025):

Key:
Tau = molecular target: T1, Tau (Homo sapiens, UniProt P10636); assay: one-step kinetic SPR (KD […]); solid phase binding with biotin-dexamethasone ([…]); DARTS in Raw264.[…] lysate ([…])
T1 construct: gene MAPT; purified Tau protein

GPR97 = molecular target: T2, GPR97 (Homo sapiens, UniProt Q86Y34); assay: HuProt human proteome microarray with biotin-labeled dexamethasone ([…]); assay type: binding
T2 construct: gene ADGRG3; full-length human protein with N-terminal glutathione S-transferase tag on microarray
T2 sequence (Q86Y34 21-549): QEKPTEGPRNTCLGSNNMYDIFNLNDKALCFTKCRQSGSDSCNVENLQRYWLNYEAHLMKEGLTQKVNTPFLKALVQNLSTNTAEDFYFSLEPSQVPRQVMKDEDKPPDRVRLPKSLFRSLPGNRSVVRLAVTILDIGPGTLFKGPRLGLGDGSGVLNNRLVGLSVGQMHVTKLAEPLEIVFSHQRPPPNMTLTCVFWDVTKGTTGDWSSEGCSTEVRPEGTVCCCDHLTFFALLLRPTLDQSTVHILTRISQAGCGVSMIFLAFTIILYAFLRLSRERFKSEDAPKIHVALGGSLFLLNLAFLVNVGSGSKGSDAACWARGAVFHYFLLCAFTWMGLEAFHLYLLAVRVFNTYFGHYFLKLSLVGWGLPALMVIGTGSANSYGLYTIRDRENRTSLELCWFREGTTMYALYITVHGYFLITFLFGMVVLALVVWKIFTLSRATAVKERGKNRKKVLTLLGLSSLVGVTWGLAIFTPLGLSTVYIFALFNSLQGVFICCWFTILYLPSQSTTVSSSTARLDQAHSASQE

T1 sequence (P10636 1-441 isoform P10636-8): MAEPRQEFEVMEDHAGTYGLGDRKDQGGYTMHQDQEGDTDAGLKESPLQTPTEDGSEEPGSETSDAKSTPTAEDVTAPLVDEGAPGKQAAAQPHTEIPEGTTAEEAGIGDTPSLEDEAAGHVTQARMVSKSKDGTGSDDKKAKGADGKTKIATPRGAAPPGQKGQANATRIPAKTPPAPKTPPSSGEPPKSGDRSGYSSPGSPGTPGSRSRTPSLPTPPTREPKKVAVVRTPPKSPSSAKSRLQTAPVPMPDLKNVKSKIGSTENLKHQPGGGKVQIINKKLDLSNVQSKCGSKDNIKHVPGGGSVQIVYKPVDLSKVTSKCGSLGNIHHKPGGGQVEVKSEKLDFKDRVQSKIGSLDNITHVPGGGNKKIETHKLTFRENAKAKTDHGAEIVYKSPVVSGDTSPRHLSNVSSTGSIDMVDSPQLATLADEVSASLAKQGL

Kd (Tau): ~380 µM
SMILES: C[C@@H]1C[C@H]2[C@@H]3CCC4=CC(=O)C=C[C@]4(C)[C@@]3(F)[C@@H](O)C[C@]2(C)[C@@]1(O)C(=O)CO [dexamethasone]
HuProt human proteome microarray with biotin-labeled dexamethasone (0.2 and 400) (GPR97): dexamethasone bound to GR and GPR97, two known receptors of dexamethasone
